Results published in publication PMC11053489 (Viruses, 2024).
Like-named read-outs stand apart in the source and are kept apart here.

How the values were obtained:
SARS-CoV-2 in Vero cells = settings: read-out: EC50, virus replication in Vero cells; cited from earlier work
[1] = tested on: SARS-CoV-2 (hCoV-19/USA-WA1/2020) in Vero CCL-81 cells; assay: microbe, parasite or virus in culture; type: cell-based; settings: for anti-SARS-CoV-2 activity (in words), concentrations up to 100 μM: Vero CCL-81 cells
Vero CCL-81 cells [2] = tested on: Vero CCL-81 cells
[3] = 10 mg/kg (in cats); cited from earlier work
[4] = 20 mg/kg, once (dog or cat); Cmax × Fun
in vitro [5] = settings: African green monkey
[6] = mice and rats; cited from earlier work
[7] = cited from earlier work
Vero CCL-81 cells [8] = assay: MTS cytotoxicity assay, Vero CCL-81 cells; settings: up to 100 μM
[9] = rats; cited from earlier work
[10] = tested on: COVID-19 / SARS-CoV-2 infection; settings: COVID-OUT, cited from earlier work
[11] = in vivo; cited from earlier work
[12] = tested on: SARS-CoV-2 (hCoV-19/USA-WA1/2020) in Calu-3 cells; assay: microbe, parasite or virus in culture; type: cell-based; settings: for EC50: read-out: Calu-3 SARS-CoV-2 EC50; for EC90: read-out: Calu-3 SARS-CoV-2 EC90
CCRF-CEM cells = settings: human
[13] = tested on: SARS-CoV-2 in Vero E6 cells; settings: read-out: EC50, SARS-CoV-2 infectivity in Vero E6 cells; cited from earlier work
in vitro [14] = settings: human, Caco-2
in vitro [15] = settings: human
[16] = cited from earlier work; remark: listed apart in the source
Vero E6 cells = settings: read-out: CC50 in Vero E6 cells; cited from earlier work
[17] = tested on: SARS-CoV-2 (hCoV-19/USA-WA1/2020) in Caco-2 cells; assay: microbe, parasite or virus in culture; settings: Severe acute respiratory syndrome coronavirus 2, Caco-2, 72 h; for EC50: read-out: Caco-2 SARS-CoV-2 EC50; for EC90: read-out: Caco-2 SARS-CoV-2 EC90
[18] = tested on: SARS-CoV-2 (hCoV-19/USA-WA1/2020) in Caco-2 cells; settings: Caco-2
[19] = human, in vivo
in vitro [20] = settings: human; remark: listed apart in the source
in vitro [21] = settings: human; remark: listed apart in the source
in vitro [22] = settings: human; remark: listed apart in the source
[23] = remdesivir following IV infusion; cited from earlier work
[24] = monkey, in vivo, po; cited from earlier work
[25] = cynomolgus monkey, in vivo; cited from earlier work
[26] = dog, in vivo; cited from earlier work
[27] = Severe acute respiratory syndrome coronavirus 2, Calu-3, 72 h
[28] = Severe acute respiratory syndrome coronavirus 2, Calu-3, MOI 0.01, 72 h, 2% FBS

For `CC(C)(Oc1ccc(C(=O)c2ccc(Cl)cc2)cc1)C(=O)O` [fenofibric acid], the EC50 (SARS-CoV-2 in Vero cells) is given as 7 µM.
In the case of `CC(C)C[C@H](NC(=O)OCc1ccccc1)C(=O)N[C@@H](CC1CCNC1=O)C(O)S(=O)(=O)O` (stereo partly drawn) [GC376], the EC50 ([1]; read-out: Vero CCL-81 Cells EC50) is reported as 0.2 µM, the EC90 ([1]; read-out: Vero CCL-81 Cells EC90) is reported as 0.6 µM and the CC50 (Vero CCL-81 cells [2]) is reported as over 100 µM. For the same compound, the Cmax [3] was 1700 nM.
In the case of `Cc1cc(C2=NO[C@@](c3cc(Cl)c(Cl)c(Cl)c3)(C(F)(F)F)C2)sc1C(=O)NCC(=O)NCC(F)(F)F` [Lotilaner], the EC50 ([1]; Severe acute respiratory syndrome coronavirus 2, 48 h, read-out: Vero CCL-81 Cells EC50) is reported as 1.9 µM, the EC90 ([1]; Severe acute respiratory syndrome coronavirus 2, 48 h, read-out: Vero CCL-81 Cells EC90) is reported as 4.9 µM and the “Cmax (μM) {unbound}” value [4] is reported as 0.007 µM. For the same compound, the CC50 (in vitro [5]) was 44.3 µM.
In the case of `c1coc(CNc2ncnc3[nH]cnc23)c1` [kinetin, N^6-furfurylaminopurine], the “antiviral activity in Vero CCL-81 cells (in words)” value ([1]; NAs and nucleoside-base precursors, evaluated up to 20 μM) is given as “lack of antiviral activity”, the “anti-SARS-CoV-2 activity (in words), concentrations up to 100 μM” value (shortened to “anti-SARS-CoV-2 activity (in words)”) [1] is given as “did not inhibit SARS-CoV-2” and the oral bioavailability [6] is given as 50%. The “bound to plasma proteins” value [7] was ~ 80% and the “cytotoxicity (in words), up to 100 μM” value (Vero CCL-81 cells [8]) was “not cytotoxic”.
For `C=CCc1ccc(O)c(-c2cc(CC=C)ccc2O)c1` [Magnolol], the oral bioavailability [9] is listed as 4%.
With `CN(C)C(=N)N=C(N)N` [metformin] the “anti-SARS-CoV-2 activity (in words)” value [1] was “inactive”, the “anti-SARS-CoV-2 activity (in words)” value ([1]; listed as Metformin) was “did not observe an EC50” and the “cytotoxicity (in words), up to 100 μM” value (Vero CCL-81 cells [2]; African green monkey) was “did not observe an EC50 or cytotoxicity”. The “absolute reduction in long COVID incidence compared with placebo” value [10] was 4.1%, the “reduction of the incidence of long COVID” value ([10]; outpatient treatment) was “about 41%” and the “plasma Cmax (bound + unbound)” value [11] was 10200 nM.
`C=CCc1ccc(O)c(-c2ccc(O)c(CC=C)c2)c1` [Honokiol] gave an EC50 [12, 27] of 69.2 µM, an EC90 [12, 27] of 94 µM and an EC50 ([1]; Severe acute respiratory syndrome coronavirus 2, 48 h, read-out: Vero CCL-81 SARS-CoV-2 EC50) of 20.1 µM. The EC90 ([1]; Severe acute respiratory syndrome coronavirus 2, 48 h, read-out: Vero CCL-81 SARS-CoV-2 EC90) was 84 µM, the “CEM CC50 {Unbound}” value (CCRF-CEM cells) was 28.6 {26.8} μM and the EC50 [13] was 13 µM. It also gave a CC50 (in vitro [14]) of 18.4 µM, a CC50 (in vitro [5]) of 40.4 µM and a CC50 (in vitro [15]; CEM CC50, 4 days) of 28.6 µM. For the same compound, the CC50 (in vitro [15]; CEM CC50 {Unbound}) was 26.7 µM, the “Fun (unbound fraction of drug in plasma)” value ([16]; Table 1, ref column Refs of Table 1) was 0.36 and the CC50 (Vero E6 cells) was 54 µM. It also gave an EC50 [17] of 9.6 µM and an EC90 [17] of 80.4 µM.
Compound `N#C[C@@]1(c2ccc3c(N)ncnn23)O[C@H](CO)[C@@H](O)[C@H]1O` [GS-441524] has an EC50 [12, 28] of 0.3 µM, an EC90 [12, 28] of 2.34 µM and an EC50 ([1]; Severe acute respiratory syndrome coronavirus 2, Table 1 drugs, MOI 0.1, 48 h, 2% FBS, read-out: Vero CCL-81 SARS-CoV-2 EC50) of 0.8 µM. For the same compound, the EC90 ([1]; Severe acute respiratory syndrome coronavirus 2, Table 1 drugs, MOI 0.1, 48 h, 2% FBS, read-out: Vero CCL-81 SARS-CoV-2 EC90) was 1.4 µM, the “Caco-2 Unbound Cmax/EC50” value [18] was 30 and the “Cmax (μM) {unbound}” value [19] was 2.41 µM. The CC50 at 3 days (in vitro [20]) was over 100 µM, the CC50 at 3 days (in vitro [14]) was over 100 µM and the CC50 at 3 days (in vitro [5]) was over 100 µM. The CC50 at 5 days (in vitro [21]) was over 100 µM, the CC50 at 4 days (in vitro [15]) was over 100 µM and the CC50 at 4 days (in vitro [22]) was over 100 µM. For the same compound, the “Fun (unbound fraction of drug in plasma)” value ([16]; plasma) was 0.79, the “plasma t1/2” value [23] was 6 to 7 h and the oral bioavailability [24] was under 10%. The oral bioavailability [25] was “about 3%”, the oral bioavailability [26] was about 89% and the EC50 [17] was 0.08 µM. It also gave an EC90 [17] of 1.4 µM.
